A short description of the data set: Release of corticosteroid from drug-containing in-situ crosslinked sodium hyaluronate hydrogel into phosphate buffer solution. The class given is physicochemical. The following applies: for cumulative releasing percentage of the drug: 0.2 mL gel in 10 mL phosphate buffer solution, 37° C., 100 rpm, UV absorption of supernatant; for release of the drug from the gel (in words): summary of the release table. The procedure:
Into the 10 mL thiolated sodium hyaluronate solution prepared in Example 1 (pH 7.0, 1.0% w/v), 0.1-10 mg one type of corticosteroid (e.g. Beclomethasone, Beclomethasone dipropionate, Budesonide; Dexamethasone, Prednisolone or Prednisone) was added. The solution was mix uniformly and immediately filled into a 1 mL syringe which was then sealed and kept at room temperature. It was observed after one week that the solution sealed in the syringe had lost fluidity to form a gel.
0.2 mL gel containing drug as described above was filled into a 15 mL plastic centrifugal tube; 10 mL phosphate buffer solution was added into the centrifugal tube which was then put in an incubator (37° C., 100 rpm); ultraviolet absorption of the drug in the supernatant was recorded at a certain time interval.
The cumulative releasing percentages of the drug at different times are as below: […]

The structures appear in SMILES notation.

`CCC(=O)OCC(=O)[C@@]1(OC(=O)CC)[C@@H](C)C[C@H]2[C@@H]3CCC4=CC(=O)C=C[C@]4(C)[C@@]3(Cl)[C@@H](O)C[C@@]21C` [Beclomethasone dipropionate]: the “release of the drug from the gel (in words)” value was “release was rarely detected”. The “cumulative releasing percentage of the drug” value (day 7) is given as under 1%. The “cumulative releasing percentage of the drug” value (day 14) is under 1%. The “cumulative releasing percentage of the drug” value (day 21) is under 1%.

Regarding `C[C@]12C=CC(=O)C=C1CC[C@@H]1[C@@H]2[C@@H](O)C[C@@]2(C)[C@H]1CC[C@]2(O)C(=O)CO` [Prednisolone], the “release of the drug from the gel (in words)” value was “released substantially completely in 7 days”. Besides, where the note is “day 7”, the “cumulative releasing percentage of the drug” value turned out to be 95%. The “cumulative releasing percentage of the drug” value (day 14) was 100%. Further, the “cumulative releasing percentage of the drug” value (day 21) is 100%.

Consider `C[C@]12C=CC(=O)C=C1CC[C@@H]1[C@@H]2C(=O)C[C@@]2(C)[C@H]1CC[C@]2(O)C(=O)CO` [Prednisone], for which the “cumulative releasing percentage of the drug” value reads like this: (day 7) 82%; (day 14) 95%; (day 21) 100%.

In the case of `C[C@H]1C[C@H]2[C@@H]3CCC4=CC(=O)C=C[C@]4(C)[C@@]3(Cl)[C@@H](O)C[C@]2(C)[C@@]1(O)C(=O)CO` [Beclomethasone], the “cumulative releasing percentage of the drug” value runs as follows: (day 7) 61%; (day 14) 82%; (day 21) 91%.

(Values after US9220676B2, “Injectable in-situ crosslinked hydrogel and methods of making and using thereof” (Bioregen Biomedical (Changzhou) Co., Ltd., priority 2008, dated 2015).)
